# Results from PMC12186697, “HypoxyStat, a small-molecule form of hypoxia therapy that increases oxygen-hemoglobin affinity” (Cell, 2025).
# Tests used:
# [1] = Mouse oral pharmacokinetics (blood and plasma, LC-MS/MS); assay type: in vivo, C57BL/6 mice
# Method: We conducted a PK/PD study to determine the optimal dosing strategy for HypoxyStat in a chronic setting. First we administered a single 10 mg/kg oral dose of HypoxyStat to adult C57BL/6 mice and monitored its concentration in blood and plasma over a 10-day period (Figure 3A, left). Next, we administered HypoxyStat at doses of 20, 60, 200, and 600 mg/kg via oral gavage three times per week for 12 days. […] Based on blood levels of HypoxyStat and Hb measured on day 12, we estimated Hb occupancy to be 29.3% at 200 mg/kg and 41.4% at 600 mg/kg (Figure S1).[27]
# Mouse plasma and whole blood samples were processed as outlined below. An equal volume of 3% aqueous formic acid in water was added to whole blood and plasma samples which were then vortexed at 600 rpm for 60 minutes at room temperature. Internal standard solution (acetonitrile containing 200 nM chrysin) was then added to the samples. They were then vortexed and centrifuged for 5 minutes at 4100 rpm and 4°C. Diluted extracts were injected into a Sciex 5500 LC-MS/MS system operated in positive mode for analysis. A Waters Acquity BEH C18 (50 x 2 mm, […]) UPLC column was used with Mobile Phases A (water:acetonitrile:formic acid [95:5:0.1, v:v:v]) and B (methanol:acetonitrile:formic acid [50:50:0.1, v:v:v]) to separate analytes. Multiple reaction monitoring transitions of 368/230 and 255/153 were used for HypoxyStat and chrysin, respectively.
# [2] = tested on: 25+ potential off-targets; test: Reaction Bio InVEST off-target panel; settings: duplicate; significance = 50% or greater inhibition in both replicates
# Method: This assay utilizes colorimetry to monitor the activity of acetylcholinesterase (AChE). Enzyme activity is measured by the conversion of acetylthiocholine to thiocholine, which is detected through an enhanced Ellman’s reaction. In each well, 20 μL of Assay Buffer (75.4 mM Na2HPO4, 24.6 mM NaH2PO4, pH 7.5) was added to wells designated as background/control (no enzyme). Subsequently, 20 μL of 0.2 U/mL AChE was added to the remaining wells. The reaction mixture was incubated at room temperature for 15 minutes on a shaker to allow for enzyme and drug interaction. To initiate the improved Ellman’s reaction, 30 μL of buffer containing 650 μM DTNB and 650 μM acetylthiocholine was added to each well. The color intensity, which is proportional to enzyme activity, was measured at 412 nm using an Envision 2105 plate reader.
# The peroxidase activity is measured colorimetrically by monitoring the appearance of oxidized TMPD at 590 nm. […] Absorbance was then measured at 590 nm using an Envision 2105 plate reader (Revvity).
# This assay uses fluorescence polarization to monitor binding to the hERG channel. […] Fluorescence polarization was measured at Ex/Em = 531 nm FP/595 nm P & S, and mP values were calculated.
# The ADP-Glo™ assay is a luminescent method used to monitor ADP-producing biochemical reactions. […] Luminescence was then measured. […]
# [3] = Stability of dosing suspension; assay type: physicochemical; settings: suspension in 0.5% HPMC, stored at 4 °C
# Method: Mice were administered HypoxyStat at 600 mg/kg every other day or 400mg/kg daily via oral gavage. For the disease prevention experiments, KO mice that underwent daily dosing were dosed starting ~P30 for 1 week of 200mg/kg daily, followed by 400mg/kg daily to allow for gradual dose escalation. For the reversal study, KO mice were dosed once with 200mg/kg on postnatal day ~P55, followed by 400mg/kg daily. HypoxyStat was formulated as a suspension at 60 mg/mL, 40mg/ml or 80mg/ml depending on dose in 0.5%HPMC and stored at 4 °C. The formulation was determined to be stable for at least 8 weeks. Animal body weight was taken at time of dosing to determine appropriate dosing volume (10 mL/kg for every other day dosing, 5ml/kg for daily dosing). Vehicle treated mice were administered the same volume of 0.5% HPMC.
# Ndufs4 KO mouse = Ndufs4 KO mouse model of Leigh syndrome (survival, body weight, temperature, behavior, neuropathology); assay type: in vivo; settings: daily HypoxyStat initiated at P50
structure (smiles),measurement,setting,value
O=Cc1ccccc1C(=O)N1CCCC[C@H]1COc1cccc(O)c1C=O [HypoxyStat],concentration within red blood cells,"[1]; 20, 60, 200 and 600 mg/kg oral gavage three times per week for 12 days",dose-dependent increase
same,Cmax,"[1]; C57BL/6, in vivo, oral, 10 mg/kg, Figure 2A, mouse",1590 nM
same,half-life,"[1]; mouse, in vivo, 10 mg/kg oral gavage, C57BL/6 mice, read-out: effective half-life (Mouse PO half-life) (converted)",121 h
same,blood plasma ratio at 3 days,"[1]; mouse, whole blood and plasma, 10 mg/kg oral gavage, C57BL/6 mice, 3 days post dosing",396
same,"off-target inhibition or binding, InVEST panel",[2],All tests were negative
same,stability of formulation,[3],at least 8 weeks
same,"reversal of body weight loss, impaired behavior and neurological lesions in late-stage KO mice",Ndufs4 KO mouse,reversed multiple other disease presentations
same,lifespan of late-stage Ndufs4 KO mice,Ndufs4 KO mouse; p < 0.05 Mantel-Cox,significantly extended the lifespan
